Values quoted from earlier work as cited in patent US7393545B2, “Lipstatin derivative—soluble fiber tablets” (priority 1999, dated 2008).

How the values were obtained:
[1] = diet-induced obese rats, 27 mg/kg/day
[2] = in vivo
pancreatic lipase = target: T1, pancreatic lipase (Homo sapiens, UniProt P16233)
T1 sequence (P16233 17-465): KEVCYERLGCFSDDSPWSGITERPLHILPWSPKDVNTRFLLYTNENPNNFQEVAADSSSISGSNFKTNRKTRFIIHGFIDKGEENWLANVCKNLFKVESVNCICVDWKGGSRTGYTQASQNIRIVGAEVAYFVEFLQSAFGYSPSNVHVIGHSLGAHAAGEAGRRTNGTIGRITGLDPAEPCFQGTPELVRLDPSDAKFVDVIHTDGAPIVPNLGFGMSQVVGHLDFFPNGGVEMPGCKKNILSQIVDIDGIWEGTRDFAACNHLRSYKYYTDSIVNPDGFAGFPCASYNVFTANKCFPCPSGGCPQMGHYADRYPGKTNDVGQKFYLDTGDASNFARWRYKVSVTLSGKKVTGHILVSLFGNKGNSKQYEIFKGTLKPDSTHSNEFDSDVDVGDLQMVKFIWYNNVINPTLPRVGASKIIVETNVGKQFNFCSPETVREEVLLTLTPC

[3] = first year of a 2 year study, 228 patients, 3× daily, mildly hypocaloric diet
[4] = placebo-controlled clinical studies, over 5000 obese patients

CCCCCCCCCCC[C@@H](C[C@@H]1OC(=O)[C@H]1CCCCCC)OC(=O)[C@H](CC(C)C)NC=O [Orlistat, tetrahydrolipostatin]
decrease in carcass fat [1]: 54 g | decrease in liver weight [1]: 13% | increase in large intestine weight [1]: 38% | increase in small intestine weight [1]: 27% | loss of body weight [1]: 65 g | retroperitoneal (RP) pad weight [1]: decreases | fat absorption ([1]; decreased from 93-94%): 17-19% | fat contained in food whose absorption is prevented [2]: about one third | inhibition of pancreatic lipase (pancreatic lipase): potent and selective inhibitor | more weight lost than the placebo controlled group [3]: 65% | share of patients having lost >10% of their bodyweight [3]: ⅓ | patients who lost 10% or more body weight compared to placebo and diet alone (first year of a two year study, moderately reduced calorie diet): 3 times | adverse side-effects [4]: no major adverse side-effects | weight loss [4]: significant weight loss
